Measurements reported in ChEMBL document CHEMBL4507291 (2021).

Legend:
[1] = biological target: Proto-oncogene tyrosine-protein kinase receptor Ret (Homo sapiens) (UniProt P07949)
[2] = biological target: Serine/threonine-protein kinase PLK1 (Homo sapiens) (UniProt P53350)
[3] = biological target: Casein kinase I isoform gamma-3 (Homo sapiens) (UniProt Q9Y6M4)
[4] = system: Receptor-type tyrosine-protein kinase FLT3 (Homo sapiens), P36888 [R834Q]
[5] = biological target: Ribosomal protein S6 kinase alpha-6 (Homo sapiens) (UniProt Q9UK32)
[6] = biological target: Serine/threonine-protein kinase 16 (Homo sapiens) (UniProt O75716)
[7] = system: Receptor-type tyrosine-protein kinase FLT3 (Homo sapiens), P36888 [D835V]
[8] = biological target: Serine/threonine-protein kinase PLK3 (Homo sapiens) (UniProt Q9H4B4)
[9] = biological target: AP2-associated protein kinase 1 (Homo sapiens) (UniProt Q2M2I8)
[10] = biological target: Calcium/calmodulin-dependent protein kinase type 1D (Homo sapiens) (UniProt Q8IU85)
[11] = biological target: Cyclin-dependent kinase 2 homolog (Plasmodium falciparum (isolate 3D7)) (UniProt P61075)
[12] = biological target: Serine/threonine-protein kinase MRCK gamma (Homo sapiens) (UniProt Q6DT37)
[13] = biological target: Serine/threonine-protein kinase B-raf (Homo sapiens) (UniProt P15056)
[14] = biological target: Serine/threonine-protein kinase tousled-like 1 (Homo sapiens) (UniProt Q9UKI8)
[15] = biological target: T1, Ephrin type-A receptor 3 (Homo sapiens) (UniProt P29320)
T1 sequence (whole entry): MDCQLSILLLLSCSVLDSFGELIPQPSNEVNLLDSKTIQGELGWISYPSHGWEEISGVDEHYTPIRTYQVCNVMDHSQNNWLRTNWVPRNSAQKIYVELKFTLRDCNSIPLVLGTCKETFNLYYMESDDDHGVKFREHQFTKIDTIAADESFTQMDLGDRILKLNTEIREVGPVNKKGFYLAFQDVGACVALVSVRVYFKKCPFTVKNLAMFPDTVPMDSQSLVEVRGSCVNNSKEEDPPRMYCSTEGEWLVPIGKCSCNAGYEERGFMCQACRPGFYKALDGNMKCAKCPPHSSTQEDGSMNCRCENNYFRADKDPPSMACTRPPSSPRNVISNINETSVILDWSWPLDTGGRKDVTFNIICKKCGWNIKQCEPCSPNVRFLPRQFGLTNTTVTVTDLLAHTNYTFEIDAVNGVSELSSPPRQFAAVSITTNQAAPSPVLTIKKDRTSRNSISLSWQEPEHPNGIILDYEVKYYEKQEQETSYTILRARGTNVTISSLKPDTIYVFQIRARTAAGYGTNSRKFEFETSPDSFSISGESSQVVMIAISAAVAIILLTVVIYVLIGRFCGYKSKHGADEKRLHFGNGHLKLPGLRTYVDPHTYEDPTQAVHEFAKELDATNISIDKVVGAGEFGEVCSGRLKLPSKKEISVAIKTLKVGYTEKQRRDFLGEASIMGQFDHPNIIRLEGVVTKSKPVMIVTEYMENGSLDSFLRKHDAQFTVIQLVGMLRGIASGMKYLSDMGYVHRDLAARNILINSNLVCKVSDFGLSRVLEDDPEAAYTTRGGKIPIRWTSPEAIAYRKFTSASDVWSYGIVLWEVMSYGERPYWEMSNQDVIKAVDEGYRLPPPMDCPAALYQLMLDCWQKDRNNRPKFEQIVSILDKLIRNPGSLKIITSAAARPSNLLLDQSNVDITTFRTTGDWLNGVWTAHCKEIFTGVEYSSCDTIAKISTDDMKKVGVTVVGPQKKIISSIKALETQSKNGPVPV

[16] = biological target: Serine/threonine-protein kinase TAO1 (Homo sapiens) (UniProt Q7L7X3)
[17] = biological target: 5'-AMP-activated protein kinase catalytic subunit alpha-1 (Homo sapiens) (UniProt Q13131)
[18] = biological target: Mast/stem cell growth factor receptor Kit (Homo sapiens) (UniProt P10721)
[19] = system: Fibroblast growth factor receptor 3 (Homo sapiens), P22607 [G697C]
[20] = biological target: Serine/threonine-protein kinase MRCK alpha (Homo sapiens) (UniProt Q5VT25)
[21] = biological target: STE20-like serine/threonine-protein kinase (Homo sapiens) (UniProt Q9H2G2)
[22] = biological target: Beta-2 adrenergic receptor (Homo sapiens) (UniProt P07550); conditions: Compound concentration 10.0 uM
[23] = biological target: Casein kinase I isoform alpha (Homo sapiens) (UniProt P48729)
[24] = Compound concentration 1000.0 nM
[25] = Compound concentration 100.0 nM

Serine/threonine-protein kinase 16 (Homo sapiens), sequence (O75716 whole entry): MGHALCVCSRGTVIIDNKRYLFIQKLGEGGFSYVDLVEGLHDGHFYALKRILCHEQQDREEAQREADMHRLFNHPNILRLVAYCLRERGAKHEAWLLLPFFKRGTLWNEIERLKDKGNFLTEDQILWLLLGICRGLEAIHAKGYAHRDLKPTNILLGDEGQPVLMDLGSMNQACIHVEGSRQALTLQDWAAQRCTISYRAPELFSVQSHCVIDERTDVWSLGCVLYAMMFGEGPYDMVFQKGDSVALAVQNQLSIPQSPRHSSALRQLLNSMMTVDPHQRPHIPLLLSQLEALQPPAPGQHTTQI
Calcium/calmodulin-dependent protein kinase type 1D (Homo sapiens), sequence (Q8IU85 whole entry, looked up): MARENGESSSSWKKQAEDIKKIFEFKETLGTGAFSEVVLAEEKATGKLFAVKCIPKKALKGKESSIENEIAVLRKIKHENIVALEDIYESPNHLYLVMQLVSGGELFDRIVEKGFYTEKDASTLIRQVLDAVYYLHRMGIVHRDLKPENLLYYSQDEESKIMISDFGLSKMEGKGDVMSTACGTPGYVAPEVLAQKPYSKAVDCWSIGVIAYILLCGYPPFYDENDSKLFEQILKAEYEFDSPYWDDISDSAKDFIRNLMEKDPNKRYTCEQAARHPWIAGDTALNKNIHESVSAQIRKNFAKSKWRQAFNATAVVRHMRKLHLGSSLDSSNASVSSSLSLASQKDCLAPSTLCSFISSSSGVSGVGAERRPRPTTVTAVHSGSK
Mast/stem cell growth factor receptor Kit (Homo sapiens), sequence (P10721 whole entry): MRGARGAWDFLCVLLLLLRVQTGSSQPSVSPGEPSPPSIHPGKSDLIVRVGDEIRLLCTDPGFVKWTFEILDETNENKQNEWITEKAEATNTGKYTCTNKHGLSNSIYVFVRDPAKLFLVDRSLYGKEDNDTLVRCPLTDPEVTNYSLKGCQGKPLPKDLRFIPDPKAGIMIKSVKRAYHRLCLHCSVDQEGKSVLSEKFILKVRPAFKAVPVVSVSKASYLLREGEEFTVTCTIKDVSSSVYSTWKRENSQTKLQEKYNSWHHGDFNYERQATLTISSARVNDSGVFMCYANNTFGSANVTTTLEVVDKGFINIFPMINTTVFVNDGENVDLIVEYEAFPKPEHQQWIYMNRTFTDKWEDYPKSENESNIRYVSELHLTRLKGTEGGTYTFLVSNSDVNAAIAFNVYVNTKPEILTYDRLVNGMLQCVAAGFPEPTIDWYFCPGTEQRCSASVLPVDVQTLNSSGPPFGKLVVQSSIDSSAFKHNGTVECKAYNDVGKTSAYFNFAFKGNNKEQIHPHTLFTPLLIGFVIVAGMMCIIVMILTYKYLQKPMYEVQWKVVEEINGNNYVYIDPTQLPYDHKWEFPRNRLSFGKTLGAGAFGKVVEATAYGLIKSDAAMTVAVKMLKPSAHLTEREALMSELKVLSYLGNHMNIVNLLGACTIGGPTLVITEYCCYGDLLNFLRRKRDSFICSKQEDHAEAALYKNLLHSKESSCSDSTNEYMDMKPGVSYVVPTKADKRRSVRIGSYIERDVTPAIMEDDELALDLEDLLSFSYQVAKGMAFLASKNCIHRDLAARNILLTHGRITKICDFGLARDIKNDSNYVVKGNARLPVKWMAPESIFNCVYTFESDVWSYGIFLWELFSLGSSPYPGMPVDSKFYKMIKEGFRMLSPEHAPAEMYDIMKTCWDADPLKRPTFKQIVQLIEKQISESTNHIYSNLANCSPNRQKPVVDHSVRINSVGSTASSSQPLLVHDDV
Serine/threonine-protein kinase PLK3 (Homo sapiens), sequence (Q9H4B4 whole entry, looked up): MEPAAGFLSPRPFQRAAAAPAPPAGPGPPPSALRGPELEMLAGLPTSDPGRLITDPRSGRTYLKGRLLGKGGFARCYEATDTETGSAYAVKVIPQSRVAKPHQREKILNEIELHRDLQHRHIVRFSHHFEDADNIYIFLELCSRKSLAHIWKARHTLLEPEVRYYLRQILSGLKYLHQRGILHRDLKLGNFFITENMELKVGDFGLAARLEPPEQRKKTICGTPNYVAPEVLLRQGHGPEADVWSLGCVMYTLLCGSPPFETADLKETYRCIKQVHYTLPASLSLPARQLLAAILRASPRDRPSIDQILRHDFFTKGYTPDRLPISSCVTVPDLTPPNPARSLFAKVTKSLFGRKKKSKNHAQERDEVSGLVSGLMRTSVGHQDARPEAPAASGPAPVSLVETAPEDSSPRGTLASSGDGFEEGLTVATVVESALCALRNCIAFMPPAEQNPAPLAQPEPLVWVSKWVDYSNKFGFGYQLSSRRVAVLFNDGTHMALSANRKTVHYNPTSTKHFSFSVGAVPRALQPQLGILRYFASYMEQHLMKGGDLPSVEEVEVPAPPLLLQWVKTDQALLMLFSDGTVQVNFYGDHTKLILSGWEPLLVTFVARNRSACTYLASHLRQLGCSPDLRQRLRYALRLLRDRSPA
STE20-like serine/threonine-protein kinase (Homo sapiens), sequence (Q9H2G2 whole entry, looked up): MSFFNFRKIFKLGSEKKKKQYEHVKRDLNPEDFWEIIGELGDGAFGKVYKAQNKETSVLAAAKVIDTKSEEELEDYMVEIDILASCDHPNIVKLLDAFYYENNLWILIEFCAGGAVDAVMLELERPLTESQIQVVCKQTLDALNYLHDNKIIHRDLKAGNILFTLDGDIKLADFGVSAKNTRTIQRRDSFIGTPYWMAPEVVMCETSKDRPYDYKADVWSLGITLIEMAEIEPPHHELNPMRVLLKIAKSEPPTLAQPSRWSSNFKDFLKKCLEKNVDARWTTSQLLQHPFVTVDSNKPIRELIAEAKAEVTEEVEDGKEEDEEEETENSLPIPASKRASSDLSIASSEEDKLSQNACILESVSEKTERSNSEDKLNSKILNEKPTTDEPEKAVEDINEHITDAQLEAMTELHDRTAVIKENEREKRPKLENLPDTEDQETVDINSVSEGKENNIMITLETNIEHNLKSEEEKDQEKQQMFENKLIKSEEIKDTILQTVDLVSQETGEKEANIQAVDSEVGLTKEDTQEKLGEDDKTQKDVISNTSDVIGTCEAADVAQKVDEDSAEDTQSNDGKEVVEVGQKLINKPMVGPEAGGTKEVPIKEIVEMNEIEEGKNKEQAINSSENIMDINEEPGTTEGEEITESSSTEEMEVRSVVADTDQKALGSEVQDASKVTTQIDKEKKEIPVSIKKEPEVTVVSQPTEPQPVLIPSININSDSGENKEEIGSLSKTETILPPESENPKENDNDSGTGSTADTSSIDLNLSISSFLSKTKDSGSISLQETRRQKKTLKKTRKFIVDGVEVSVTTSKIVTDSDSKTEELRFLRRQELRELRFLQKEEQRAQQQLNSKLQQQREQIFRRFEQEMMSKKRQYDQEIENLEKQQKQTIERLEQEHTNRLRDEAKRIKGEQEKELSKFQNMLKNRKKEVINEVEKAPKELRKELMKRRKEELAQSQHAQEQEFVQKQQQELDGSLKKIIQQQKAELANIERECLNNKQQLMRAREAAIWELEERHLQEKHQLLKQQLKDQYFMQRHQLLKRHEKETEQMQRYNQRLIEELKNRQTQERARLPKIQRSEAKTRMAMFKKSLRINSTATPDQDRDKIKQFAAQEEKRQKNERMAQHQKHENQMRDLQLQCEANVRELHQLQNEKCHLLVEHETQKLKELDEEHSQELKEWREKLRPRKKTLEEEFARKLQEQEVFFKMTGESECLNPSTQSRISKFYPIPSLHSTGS
Casein kinase I isoform alpha (Homo sapiens), sequence (P48729 2-337 limits assumed): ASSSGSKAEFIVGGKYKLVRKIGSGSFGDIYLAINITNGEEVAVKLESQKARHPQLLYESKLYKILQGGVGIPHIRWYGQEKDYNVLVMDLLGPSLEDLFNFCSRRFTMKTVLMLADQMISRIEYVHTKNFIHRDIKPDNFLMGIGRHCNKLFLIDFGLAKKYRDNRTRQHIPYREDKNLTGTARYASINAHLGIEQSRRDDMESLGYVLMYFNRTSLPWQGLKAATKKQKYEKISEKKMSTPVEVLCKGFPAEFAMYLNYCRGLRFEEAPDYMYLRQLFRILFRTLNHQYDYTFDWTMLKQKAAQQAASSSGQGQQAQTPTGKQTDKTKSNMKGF
Cyclin-dependent kinase 2 homolog (Plasmodium falciparum (isolate 3D7)), sequence (P61075 whole entry): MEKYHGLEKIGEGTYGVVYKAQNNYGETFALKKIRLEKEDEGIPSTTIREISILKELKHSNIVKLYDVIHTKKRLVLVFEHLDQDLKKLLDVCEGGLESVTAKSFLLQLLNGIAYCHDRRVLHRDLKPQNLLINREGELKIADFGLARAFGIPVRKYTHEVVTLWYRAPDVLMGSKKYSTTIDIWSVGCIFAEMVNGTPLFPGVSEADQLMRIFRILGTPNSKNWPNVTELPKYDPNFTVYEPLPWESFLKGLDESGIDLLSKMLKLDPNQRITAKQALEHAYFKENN
Casein kinase I isoform gamma-3 (Homo sapiens), sequence (Q9Y6M4 whole entry, looked up, canonical isoform): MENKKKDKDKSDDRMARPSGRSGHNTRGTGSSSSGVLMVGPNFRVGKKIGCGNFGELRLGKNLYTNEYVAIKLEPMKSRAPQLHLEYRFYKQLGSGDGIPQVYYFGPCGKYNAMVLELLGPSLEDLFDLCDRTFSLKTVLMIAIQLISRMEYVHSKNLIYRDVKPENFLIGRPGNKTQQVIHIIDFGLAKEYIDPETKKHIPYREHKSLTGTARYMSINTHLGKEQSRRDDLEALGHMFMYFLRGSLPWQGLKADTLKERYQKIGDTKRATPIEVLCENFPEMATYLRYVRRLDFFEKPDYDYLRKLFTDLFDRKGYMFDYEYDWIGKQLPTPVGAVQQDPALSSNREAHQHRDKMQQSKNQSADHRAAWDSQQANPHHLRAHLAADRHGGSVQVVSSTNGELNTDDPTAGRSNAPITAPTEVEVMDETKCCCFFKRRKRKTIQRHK

C[C@@H]1CN(c2cc(-c3nn(C)c4ccc(OC5(C)CC5)cc34)ncn2)C[C@H](C)O1 [MLi-2-NC]
inactive: residual activity [1, 24] 96% | residual activity [2, 24] 74% | residual activity [3, 24] 100% | residual activity [4, 24] 90% | residual activity [5, 24] 79% | residual activity [6, 24] 100% | residual activity [7, 24] 86% | residual activity [8, 24] 84% | residual activity [9, 24] 84% | residual activity [10, 24] 100% | residual activity [11, 24] 94% | residual activity [12, 24] 100% | residual activity [13, 24] 68% | residual activity [14, 24] 100% | residual activity [15, 24] 68% | residual activity [16, 24] 82% | residual activity [17, 24] 93% | residual activity [18, 24] 100% | residual activity [19, 24] 100% | residual activity [20, 24] 89% | residual activity [21, 24] 100% | inhibition [22] 13.8% | residual activity [23, 24] 100%

C[C@@H]1CN(c2cc(-c3n[nH]c4ccc(OC5(C)CC5)cc34)ncn2)C[C@H](C)O1 [MLi-2]
inactive: residual activity [1, 25] 100% | residual activity [2, 25] 68% | residual activity [3, 25] 95% | residual activity [4, 25] 78% | residual activity [5, 25] 85% | residual activity [6, 25] 100% | residual activity [7, 25] 73% | residual activity [8, 25] 84% | residual activity [9, 25] 100% | residual activity [10, 25] 100% | residual activity [11, 25] 80% | residual activity [12, 25] 89% | residual activity [13, 25] 91% | residual activity [14, 25] 94% | residual activity [15, 25] 93% | residual activity [16, 25] 86% | residual activity [17, 25] 86% | residual activity [18, 25] 82% | residual activity [19, 25] 86% | residual activity [20, 25] 90% | residual activity [21, 25] 98% | inhibition [22] 26.4% | residual activity [23, 25] 73%
